Data taken from patent US5229116A, “Administration of pharmaceutical agents” (priority 1989, dated 1993).
Each block holds one molecule with its values, some of them ahead of it.

Test: In vivo pharmacokinetic studies of dihydropyridines given orally with water, grapefruit juice or orange juice (plasma concentration, GC analysis)
Set-up: species or system human (healthy subjects, hypertensive patients)
Conditions: human, po, mean; for AUC(0-inf): zero to infinity
Protocol: Hypertensive patients and healthy volunteers were given commercially available formulations of dihydropyridines in the morning after an overnight fast. The tablets were taken either with water, orange juice, or, as a source of flavonoids, 200 ml grapefruit juice. This contains about 150 mg of flavonoids, either as aglycones or glycosides.
The protocols for the five studies are shown on Table 2.
Blood samples for the analysis of the dihydropyridine and the first metabolite were drawn before and at frequent intervals after dose via an indwelling antecubital cannula. Samples were centrifuged and the plasma frozen (-20° C.) until analysis.
The maximum plasma concentration, Cmax, and the corresponding time to reach peak concentration, tmax, were recorded from the individual plasma concentration time curves of the dihydropyridine and its first metabolite. The area from zero to infinity was calculated adding the residual area to the area from zero to last determinable plasma concentration value by using the slope of the log plasma concentration time curve in the 3 to 8 hour interval after dose.

[1] = plasma, felodipine ER tablets, healthy subjects, n = 9, grapefruit juice
[2] = plasma, felodipine ER tablets, healthy subjects, n = 9, water
[3] = plasma, felodipine plain tablets, healthy subjects, n = 9, grapefruit juice
[4] = plasma, felodipine plain tablets, healthy subjects, n = 9, water
[5] = plasma, felodipine plain tablets, patients, n = 6, grapefruit juice
[6] = plasma, felodipine plain tablets, patients, n = 6, orange juice
[7] = plasma, felodipine plain tablets, patients, n = 6, water
[8] = plasma, 10 mg, nitrendipine 10 mg tablets, healthy subjects, n = 3, grapefruit juice
[9] = plasma, 10 mg, nitrendipine 10 mg tablets, healthy subjects, n = 3, water

Cmax [1]: 8.9 ± 3.3 nM
Tmax [1]: 3.2 ± 0.8 h
AUC(0-inf) [1]: 0.0478 ± 0.0157 µM·h
Cmax [2]: 3.4 ± 1.6 nM
Tmax [2]: 3.4 ± 0.9 h
AUC(0-inf) [2]: 0.0274 ± 0.0123 µM·h
Cmax [3]: 16.3 ± 7.1 nM
Tmax [3]: 2.1 ± 0.9 h
AUC(0-inf) [3]: 0.065 ± 0.0263 µM·h
Cmax [4]: 6.6 ± 3.6 nM
Tmax [4]: 1.3 ± 0.6 h
AUC(0-inf) [4]: 0.0228 ± 0.0106 µM·h
Cmax [5]: 28.7 ± 7.6 nM
Tmax [5]: 2.1 ± 0.5 h
AUC(0-inf) [5]: 0.121 ± 0.045 µM·h
Cmax [6]: 16.4 ± 7.8 nM
Tmax [6]: 1.9 ± 0.1 h
AUC(0-inf) [6]: 0.0514 ± 0.0222 µM·h
Cmax [7]: 13.2 ± 5 nM
Tmax [7]: 1.1 ± 0.5 h
AUC(0-inf) [7]: 0.0484 ± 0.0237 µM·h
Structure (SMILES): CCOC(=O)C1=C(C)NC(C)=C(C(=O)OC)C1c1cccc(Cl)c1Cl (stereo not drawn) [Felodipine]

Structure (SMILES): CCOC(=O)C1=C(C)NC(C)=C(C(=O)OC)C1c1cccc([N+](=O)[O-])c1 (stereo not drawn) [Nitrendipine]
Tmax (in vivo, 10 mg, nitrendipine 10 mg tablets, healthy subjects, n = 3, grapefruit juice): 1.3 ± 0.5 h
Tmax (in vivo, 10 mg, nitrendipine 10 mg tablets, healthy subjects, n = 3, water): 1.5 h
Cmax [8]: 8.9 ± 4.8 nM
AUC(0-inf) [8]: 0.035 ± 0.0195 µM·h
Cmax [9]: 3.7 ± 1.8 nM
AUC(0-inf) [9]: 0.0151 ± 0.0058 µM·h
